For 17 compounds, IC50 results are on record in patent US20100003246A1, “Novel heterocyclic compounds and uses therof” (priority 2008, published 2010).

For this assay, the target named is T1, b-Raf(V600E) (Homo sapiens, UniProt P15056, V600E).
T1 construct: made in house
T1 sequence (P15056 whole entry V600E): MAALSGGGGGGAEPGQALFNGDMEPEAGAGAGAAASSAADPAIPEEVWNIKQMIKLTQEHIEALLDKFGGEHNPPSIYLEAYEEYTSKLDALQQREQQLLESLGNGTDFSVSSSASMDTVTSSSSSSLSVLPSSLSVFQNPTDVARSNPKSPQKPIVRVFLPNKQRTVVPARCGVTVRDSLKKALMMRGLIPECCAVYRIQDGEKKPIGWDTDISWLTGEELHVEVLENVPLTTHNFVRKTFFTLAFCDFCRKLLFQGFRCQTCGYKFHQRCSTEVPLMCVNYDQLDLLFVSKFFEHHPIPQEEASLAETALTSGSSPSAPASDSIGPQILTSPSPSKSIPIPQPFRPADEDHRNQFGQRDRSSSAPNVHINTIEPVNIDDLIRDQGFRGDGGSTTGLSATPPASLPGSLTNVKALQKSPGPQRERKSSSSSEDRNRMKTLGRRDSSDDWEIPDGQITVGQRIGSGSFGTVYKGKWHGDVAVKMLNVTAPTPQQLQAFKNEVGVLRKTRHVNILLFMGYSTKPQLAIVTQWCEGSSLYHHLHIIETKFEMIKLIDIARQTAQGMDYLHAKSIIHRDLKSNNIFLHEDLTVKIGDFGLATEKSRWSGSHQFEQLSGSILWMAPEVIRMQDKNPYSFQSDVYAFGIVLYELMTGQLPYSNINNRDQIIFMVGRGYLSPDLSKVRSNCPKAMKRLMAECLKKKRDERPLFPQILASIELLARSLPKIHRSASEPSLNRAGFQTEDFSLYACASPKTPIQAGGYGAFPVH
Kind of assay: Raf/Mek Amplified Luminescence Proximity Homogeneous Assay (Alpha Screen), b-Raf(V600E). Type of assay: biochemical. The conditions noted are these: mutant b-Raf(V600E), read-out: mut-b-RAF (IC50 in uM). How it is done:
Assay buffer: 50 mM Tris, pH 7.5, 15 mM MgCl2, 0.01% BSA, 1 mM DTT Stop buffer: 60 mM EDTA, 0.01% Tween20 Bead buffer: 50 mM Tris, pH 7.5, 0.01% Tween20
b-Raf(V600E), active: Recombinant in-house material biotinylated Mek, kinase dead: Recombinant in-house material Alpha Screen detection kit PerkinElmer, #6760617R Anti phospho-MEK½ Cell signaling #9121 384 well assay plates: White Greiner plates, #781207
b-Raf(V600E) approximately 4 pM c-Raf approximately 4 nM biotinylated Mek, Kinase dead approximately 10 nM
Pre-incubation time with compounds 60 min at room temperature Reaction time 1 or 3 hours at room temperature
Raf and biotinylated Mek, kinase dead, were combined at 2× final concentrations in assay buffer (50 mM Tris, pH 7.5, 15 mM MgCl2, 0.01% BSA and 1 mM DTT) and dispensed 10 μl per well in assay plates (Greiner white 384 well assay plates #781207) containing 0.5 μl of 40× of a raf kinase inhibitor test compound diluted in 100% DMSO. The plate was incubated for 60 min at room temperature.
The Raf kinase activity reaction was started by the addition of 10 μl per well of 2×ATP diluted in assay buffer. After 3 hours (bRaf(V600E)) or 1 hour (c-Raf), the reactions were stopped with the addition of 10 μl of stop reagent (60 mM EDTA). Phosphorylated product was measured using a rabbit anti-p-MEK (Cell Signaling, #9121) antibody and the Alpha Screen IgG (Protein A) detection Kit (PerkinElmer #6760617R), by the addition of 30 μL to the well of a mixture of the antibody (1:2000 dilution) and detection beads (1:2000 dilution of both beads) in bead buffer (50 mM Tris, pH 7.5, 0.01% Tween20). The additions were carried out under dark conditions to protect the detection beads from light. A lid was placed on top of the plate and incubated for 1 hour at room temperature, then the luminescence was read on a PerkinElmer Envision instrument. The concentration of each compound for 50% inhibition (IC50) was calculated by non-linear regression using XL Fit data analysis software.
The Raf/Mek Amplified Luminescence Proximity Homogeneous Assay described was used to generate the luminescence and mutant b-Raf(V600E) IC50 data for selected Raf Kinase Inhibitors shown in Table 1 above.
Usually IC50 stands for the concentration that inhibits the measured activity by half. In the case of `Nc1n[nH]c2cc(-c3[nH]c(-c4ccccc4)nc3-c3ccncc3)ccc12` [Compound 24, 6-(2-phenyl-4-(pyridin-4-yl)-1H-imidazol-5-yl)-1H-indazol-3-amine], the 50% inhibitory concentration (IC50) was 0.058 µM.

Take `Nc1ncc(-c2[nH]c(-c3ccccc3)nc2-c2ccncc2)cn1` [Compound 25, 5-(2-phenyl-4-(pyridin-4-yl)-1H-imidazol-5-yl)pyrimidin-2-amine]: the half-inhibitory concentration (IC50) amounted to 0.489 µM.

Take `Nc1n[nH]c2ccc(-c3[nH]c(-c4ccccc4)nc3-c3ccncc3)cc12` [Compound 26, 5-(2-phenyl-4-(pyridin-4-yl)-1H-imidazol-5-yl)-1H-indazol-3-amine]: the concentration for half-maximal inhibition (IC50) came out at 0.173 µM.

On to `Nc1cc(-c2[nH]c(-c3ccccc3)nc2-c2ccncc2)ccn1` [Compound 27, 4-(2-phenyl-4-(pyridin-4-yl)-1H-imidazol-5-yl)pyridin-2-amine], for which the IC50 was 0.417 µM.

On to `CC(=O)Nc1n[nH]c2cc(-c3[nH]c(-c4ccccc4)nc3-c3ccncc3)ccc12` [Compound 28, N-(6-(2-phenyl-4-(pyridin-4-yl)-1H-imidazol-5-yl)-1H-indazol-3-yl)acetamide], for which the 50% inhibitory concentration (IC50) is 0.449 µM.

`Nc1ccc(-c2[nH]c(-c3ccccc3)nc2-c2ccncc2)cn1` [Compound 29, 5-(2-phenyl-4-(pyridin-4-yl)-1H-imidazol-5-yl)pyridin-2-amine]: the IC50 was found to be 0.26 µM.

`Nc1n[nH]c2cc(-c3[nH]c(-c4ccccc4)nc3-c3ccncc3)cc(F)c12` [Compound 30, 4-fluoro-6-(2-phenyl-4-(pyridin-4-yl)-1H-imidazol-5-yl)-1H-indazol-3-amine]: the IC50 amounted to 0.528 µM.

Regarding `c1ccc(-c2nc(-c3ccncc3)c(-c3ccc4cn[nH]c4c3)[nH]2)cc1` [Compound 32, 6-(2-phenyl-4-(pyridin-4-yl)-1H-imidazol-5-yl)-1H-indazole], the IC50 was found to be 0.017 µM.

For `c1ccc(-c2nc(-c3ccncc3)c(-c3ccc4cc[nH]c4c3)[nH]2)cc1` [Compound 33, 6-(2-phenyl-4-(pyridin-4-yl)-1H-imidazol-5-yl)-1H-indole], the IC50 was determined as 0.054 µM.

With `c1ccc(-c2nc(-c3ccncc3)c(-c3ccc4cnoc4c3)[nH]2)cc1` [Compound 34, 6-(2-phenyl-4-(pyridin-4-yl)-1H-imidazol-5-yl)benzo[d]isoxazole], the IC50 worked out at 0.005 µM.

As to `Cc1n[nH]c2ccc(-c3[nH]c(-c4ccccc4)nc3-c3ccncc3)cc12` [Compound 35, 3-methyl-5-(2-phenyl-4-(pyridin-4-yl)-1H-imidazol-5-yl)-1H-indazole], the IC50 came out at 0.099 µM.

As to `COc1cncc(-c2[nH]c(-c3ccccc3)nc2-c2ccncc2)c1` [Compound 36, 3-methoxy-5-(2-phenyl-4-(pyridin-4-yl)-1H-imidazol-5-yl)pyridine], the IC50 came to 0.013 µM.

As to `Nc1ccc(-c2[nH]c(-c3ccccc3)nc2-c2ccncc2)c(F)n1` [Compound 37, 6-fluoro-5-(2-phenyl-4-(pyridin-4-yl)-1H-imidazol-5-yl)pyridin-2-amine], the IC50 was found to be 0.387 µM.

Take `COc1nc(-c2[nH]c(-c3ccccc3)nc2-c2ccncc2)cnc1N` [Compound 39, 3-methoxy-5-(2-phenyl-4-(pyridin-4-yl)-1H-imidazol-5-yl)pyrazin-2-amine]: the 50% inhibitory concentration (IC50) was determined as 0.006 µM.

Take `COc1cc(N)ncc1-c1[nH]c(-c2ccccc2)nc1-c1ccncc1` [Compound 40, 4-methoxy-5-(2-phenyl-4-(pyridin-4-yl)-1H-imidazol-5-yl)pyridin-2-amine]: the half-maximal inhibitory concentration (IC50) is 0.502 µM.

As to `COc1ncc(-c2[nH]c(-c3ccccc3)nc2-c2ccncc2)cc1N` [Compound 42, 2-methoxy-5-(2-phenyl-4-(pyridin-4-yl)-1H-imidazol-5-yl)pyridin-3-amine], the 50% inhibitory concentration (IC50) was determined as 0.349 µM.

For `CNc1ncc(-c2[nH]c(-c3ccccc3)nc2-c2ccncc2)cc1OC` [Compound 43, 3-methoxy-N-methyl-5-(2-phenyl-4-(pyridin-4-yl)-1H-imidazol-5-yl)pyridin-2-amine], the concentration for half-maximal inhibition (IC50) turned out to be 0.025 µM.
